# Reference: paper PMC4182091, “A Common Minimal Motif for the Ligands of HLA-B*27 Class I Molecules” (PLoS ONE, 2014)
# Ends that are not written are not given here.
# Assays:
# Assay type in all cases: cell-based
# HLA-B*2706 = target: T1, HLA-B*2706 (Homo sapiens, UniProt P01889, A235G/D201E/E204Q/G107R/H137Y/K202T/N104T/N87E/Q56L/Q94K/R106L/R155S/R180L/S121N/S48T/Y33H/Y91C); experiment: HLA/peptide complex stability assay, RMA-S cells transfected with HLA-B*2706; conditions: SD
# T1 construct: expressed in transfected cells; host or cells: RMA-S (TAP-deficient murine cell line)
# HLA-B*2701 = target: T2, HLA-B*2701 (Homo sapiens, UniProt P01889, D138H/D201E/D98Y/E176V/E204Q/G107R/H137Y/K202T/L105A/N104T/N87E/Q56L/Q94K/R106L/R155S/R180L/S101N/S121N/S48T/Y140D/Y33H/Y91C); experiment: HLA/peptide complex stability assay, RMA-S cells transfected with HLA-B*2701; conditions: SD
# T2 construct: expressed in transfected cells; host or cells: RMA-S (TAP-deficient murine cell line)
# HLA-B*2703 = target: T3, HLA-B*2703 (Homo sapiens, UniProt P01889, D138H/D201E/E176V/E204Q/G107R/H137Y/K202T/N104T/N87E/Q56L/Q94K/R106L/R155S/R180L/S101D/S121N/S48T/Y140D/Y33H/Y83H/Y91C); experiment: HLA/peptide complex stability assay, RMA-S cells transfected with HLA-B*2703; conditions: EC50, B*2703; SD
# T3 construct: expressed in transfected cells; host or cells: RMA-S (TAP-deficient murine cell line)
# HLA-B*2704 = HLA-B*2704 (Homo sapiens, UniProt P01889, A235G/D138H/D201E/E204Q/G107R/H137Y/K202T/N104T/N87E/Q56L/Q94K/R106L/R155S/R180L/S121N/S48T/Y140D/Y33H/Y91C); experiment: HLA/peptide complex stability assay, RMA-S cells transfected with HLA-B*2704; conditions: SD
# HLA-B*2705 = target: T4, HLA-B*2705 (Homo sapiens, UniProt P01889, D138H/D201E/E176V/E204Q/G107R/H137Y/K202T/N104T/N87E/Q56L/Q94K/R106L/R155S/R180L/S101D/S121N/S48T/Y140D/Y33H/Y91C); experiment: HLA/peptide complex stability assay, RMA-S cells transfected with HLA-B*2705; conditions: SD
# T4 construct: expressed in transfected cells; host or cells: RMA-S (TAP-deficient murine cell line)
# HLA-B*2709 = target: T5, HLA-B*2709 (Homo sapiens, UniProt P01889, D138H/D201E/E176V/E204Q/G107R/H137Y/K202T/N104T/N87E/Q56L/Q94K/R106L/R155S/R180L/S101D/S121N/S48T/Y140H/Y33H/Y91C); experiment: HLA/peptide complex stability assay, RMA-S cells transfected with HLA-B*2709; conditions: EC50, B*2709; SD
# T5 construct: expressed in transfected cells; host or cells: RMA-S (TAP-deficient murine cell line)
# HLA-B*2702 = HLA-B*2702 (Homo sapiens, UniProt P01889, D138H/D201E/E176V/E204Q/G107R/H137Y/K202T/L105A/N104I/N87E/Q56L/Q94K/R106L/R155S/R180L/S101N/S121N/S48T/Y140D/Y33H/Y91C); experiment: HLA/peptide complex stability assay, RMA-S cells transfected with HLA-B*2702; conditions: EC50, B*2702; SD
sequence,measurement,setting,value
"RRAIATPGM [Flu PB1 238-246, reference compound]",EC50,HLA-B*2706,2 ± 1 µM
same,EC50,HLA-B*2701,5 ± 1 µM
same,EC50,HLA-B*2703,2 ± 1 µM
same,EC50,HLA-B*2704,9 ± 1 µM
same,EC50,HLA-B*2705,3 ± 2 µM
same,EC50,HLA-B*2709,2 ± 1 µM
same,EC50,HLA-B*2702,12 ± 4 µM
